Data set [1] relates to Aedes atropalpus. Description: Toxicity in second-instar Aedes atropalpus in pupal stage assessed as growth. The data set is classed as functional, organism-based.
Data set [2] is described as follows: Partition coefficient, log P of the compound. The data set is classed as physicochemical. The note with it: octanol/water.
For data set [3], the system named is Aedes atropalpus. Description: Toxicity in second-instar Aedes atropalpus in adult stage assessed as growth. It is filed as functional, organism-based.
The test system of data set [4] is Aedes atropalpus. Description: Toxicity in second-instar Aedes atropalpus larvae at 10 ppm after 24 hrs. The data set is classed as functional, organism-based.
Data set [5] relates to Aedes atropalpus. The data set is described as follows: Toxicity in second-instar Aedes atropalpus larvae at 100 ppm after 24 hrs. It is filed as functional, organism-based.

Active and inactive are the calls of the source. The calls are words filed in the database; no cut-off is given here.

In general, logP refers to a log measure of how a compound divides between an organic and an aqueous phase. A lower logP goes with lower lipophilicity.

Take `C=C1C(=O)O[C@@H]2[C@H]1CC[C@H](C)[C@@H]1[C@H](O)CC(=O)[C@]12C` [BIPINNATIN]: the outcome in data set [1] and in data set [3] was Active. Moreover, in data set [2], the log partition coefficient (logP) was found to be 1.62.
Consider `C=C1C(=O)O[C@@H]2[C@H]1CC[C@H](C)[C@]1(O)CCC(=O)[C@@]21C` [CORONOPILIN], for which the result in data set [1] and in data set [3] was Active. The compound also displayed a logP in data set [2] of 1.42.
Take `C=C1C(=O)O[C@@H]2C[C@@]3(C)CCC[C@H](C)C3=C[C@H]12` [HELENINE]: the result in data set [1], in data set [3], in data set [4] and in data set [5] was Active. The compound further yielded a logP in data set [2] of 3.38.
Turning to `C[C@H]1C(=O)O[C@@H]2[C@H]1CC[C@H](C)[C@]1(O)C=CC(=O)[C@@]21C` [HYMENOLIN], the outcome in data set [1] and in data set [3] was Active. In data set [2], this compound had a logP of 1.7.
`C=C1C(=O)O[C@@H]2C[C@@]3(C)CCCC(=C)[C@@H]3C[C@H]12` [ISOALANTOLACTONE]: the result in data set [1], in data set [3], in data set [4] and in data set [5] was Active. The compound also gave a log partition coefficient (logP) in data set [2] of 3.42.
In the case of `C=C1C(=O)O[C@@H]2[C@H]1CC[C@H](C)[C@]1(O)C=CC(=O)[C@@]21C` [PARTHENIN], the result in data set [1], in data set [3], in data set [4] and in data set [5] was Active. For the same compound, the log partition coefficient (logP) in data set [2] turned out to be 1.37.

These data come from ChEMBL document CHEMBL1151659, “Effects of Sesquiterpene Lactones on Development of Aedes atropalpus and Relation to Partition Coefficient” (J Nat Prod, 1985).
